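Following 48 hours of exposure in 96-well plates, responses at five concentrations were used to interpolate endpoints linearly. GI50 is the concentration that inhibits growth by half. Definition used: TGI = concentration required for complete inhibition of growth.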
Key:
Assay in all cases: inhibition of tumour cell growth, NCI panel, 48 h; in the data active = GI50 below about 0.43 µM; inactive = the rest
CCRF-CEM leukemia = test system: CCRF-CEM leukemia
T-47D breast = test system: T-47D breast
CAKI-1 renal = test system: CAKI-1 renal
MOLT-4 leukemia = test system: MOLT-4 leukemia
SNB-19 CNS = test system: SNB-19 CNS
HS 578T breast = test system: HS 578T breast
MCF7 breast = test system: MCF7 breast
U251 CNS = test system: U251 CNS
HOP-92 NSCLC = test system: HOP-92 NSCLC
SF-268 CNS = test system: SF-268 CNS
NCI-H460 lung = test system: NCI-H460 lung
SF-539 CNS = test system: SF-539 CNS
EKVX NSCLC = test system: EKVX NSCLC
SK-MEL-28 melanoma = test system: SK-MEL-28 melanoma
UACC-62 melanoma = test system: UACC-62 melanoma
HL-60(TB) leukemia = test system: HL-60(TB) leukemia
COLO 205 colon = test system: COLO 205 colon
HCC-2998 colon = test system: HCC-2998 colon
SK-MEL-5 melanoma = test system: SK-MEL-5 melanoma
OVCAR-3 ovarian = test system: OVCAR-3 ovarian
M14 melanoma = test system: M14 melanoma
TK-10 renal = test system: TK-10 renal
A498 renal = test system: A498 renal
SN12C renal = test system: SN12C renal
SW-620 colon = test system: SW-620 colon
IGROV1 ovarian = test system: IGROV1 ovarian
K-562 leukemia = test system: K-562 leukemia
HT29 colon = test system: HT29 colon
SK-OV-3 ovarian = test system: SK-OV-3 ovarian
KM12 colon = test system: KM12 colon
MDA-MB-231 breast = test system: MDA-MB-231 breast
SK-MEL-2 melanoma = test system: SK-MEL-2 melanoma
PC-3 prostate = test system: PC-3 prostate
HOP-62 NSCLC = test system: HOP-62 NSCLC
ACHN renal = test system: ACHN renal
NCI-H23 lung = test system: NCI-H23 lung
NCI-H226 lung = test system: NCI-H226 lung
SNB-75 CNS = test system: SNB-75 CNS
NCI/ADR-RES ovarian = test system: NCI/ADR-RES ovarian
OVCAR-4 ovarian = test system: OVCAR-4 ovarian
UACC-257 melanoma = test system: UACC-257 melanoma
RPMI-8226 leukemia = test system: RPMI-8226 leukemia
NCI-H522 lung = test system: NCI-H522 lung
HCT-116 colon = test system: HCT-116 colon
RXF 393 renal = test system: RXF 393 renal
UO-31 renal = test system: UO-31 renal
MDA-MB-435 = test system: MDA-MB-435
786-0 renal = test system: 786-0 renal
OVCAR-5 ovarian = test system: OVCAR-5 ovarian
A549 NSCLC = test system: A549 NSCLC
BT-549 breast = test system: BT-549 breast
SF-295 CNS = test system: SF-295 CNS
SR leukemia = test system: SR leukemia
OVCAR-8 ovarian = test system: OVCAR-8 ovarian
DU-145 prostate = test system: DU-145 prostate
HCT-15 colon = test system: HCT-15 colon
LOX IMVI melanoma = test system: LOX IMVI melanoma

COc1ccc(OC)c(/C=C/C(=O)N/N=C/c2ccc(Cl)cc2)c1
> 39600 nM: TGI (RPMI-8226 leukemia)
75200 nM: TGI (HOP-92 NSCLC)
> 25900 nM: TGI (M14 melanoma)
215 nM: TGI (NCI/ADR-RES ovarian)
> 65800 nM: TGI (T-47D breast)
87.5 nM: TGI (OVCAR-3 ovarian)
> 29100 nM: TGI (KM12 colon)
5720 nM: TGI (NCI-H522 lung)
483 nM: TGI (HL-60(TB) leukemia)
653 nM: TGI (HCC-2998 colon)
> 57000 nM: TGI (MCF7 breast)
599 nM: TGI (COLO 205 colon)
> 100000 nM: TGI (CCRF-CEM leukemia) | TGI (CAKI-1 renal) | TGI (MOLT-4 leukemia) | TGI (SNB-19 CNS) | TGI (HS 578T breast) | TGI (SF-268 CNS) | TGI (EKVX NSCLC) | TGI (SK-MEL-28 melanoma) | TGI (UACC-62 melanoma) | TGI (TK-10 renal) | TGI (SN12C renal) | TGI (SW-620 colon) | TGI (K-562 leukemia) | TGI (MDA-MB-231 breast) | TGI (SK-MEL-2 melanoma) | TGI (PC-3 prostate) | TGI (ACHN renal) | TGI (NCI-H226 lung) | TGI (OVCAR-4 ovarian) | TGI (UACC-257 melanoma) | TGI (UO-31 renal) | TGI (786-0 renal) | TGI (OVCAR-5 ovarian) | TGI (A549 NSCLC) | TGI (BT-549 breast) | TGI (OVCAR-8 ovarian) | TGI (HCT-15 colon) | TGI (LOX IMVI melanoma)
16400 nM: TGI (SR leukemia)
inactive: GI50 (HOP-92 NSCLC) 9270 nM | GI50 (EKVX NSCLC) 704 nM | GI50 (SN12C renal) 488 nM | GI50 (MDA-MB-231 breast) 531 nM | GI50 (SK-MEL-2 melanoma) 1060 nM | GI50 (ACHN renal) 1610 nM | GI50 (NCI-H226 lung) 909 nM | GI50 (OVCAR-4 ovarian) 1410 nM | GI50 (UACC-257 melanoma) 36500 nM | GI50 (UO-31 renal) 3370 nM | GI50 (OVCAR-5 ovarian) 15300 nM | GI50 (BT-549 breast) 1170 nM
> 37100 nM: TGI (NCI-H460 lung)
36600 nM: TGI (A498 renal)
active: GI50 (CCRF-CEM leukemia) 141 nM | GI50 (T-47D breast) 78.6 nM | GI50 (CAKI-1 renal) 78.6 nM | GI50 (MOLT-4 leukemia) 213 nM | GI50 (SNB-19 CNS) 159 nM | GI50 (HS 578T breast) 188 nM | GI50 (MCF7 breast) 52.9 nM | GI50 (U251 CNS) 184 nM | GI50 (SF-268 CNS) 235 nM | GI50 (NCI-H460 lung) 70.4 nM | GI50 (SF-539 CNS) 157 nM | GI50 (SK-MEL-28 melanoma) 372 nM | GI50 (UACC-62 melanoma) 58 nM | GI50 (HL-60(TB) leukemia) 78.5 nM | GI50 (COLO 205 colon) 93.5 nM | GI50 (HCC-2998 colon) 83.1 nM | GI50 (SK-MEL-5 melanoma) 36.3 nM | GI50 (OVCAR-3 ovarian) 28.5 nM | GI50 (M14 melanoma) 63.3 nM | GI50 (TK-10 renal) 383 nM | GI50 (A498 renal) 111 nM | GI50 (SW-620 colon) 57.7 nM | GI50 (IGROV1 ovarian) 123 nM | GI50 (K-562 leukemia) 42 nM | GI50 (HT29 colon) 38.8 nM | GI50 (SK-OV-3 ovarian) 92.8 nM | GI50 (KM12 colon) 46.6 nM | GI50 (PC-3 prostate) 105 nM | GI50 (HOP-62 NSCLC) 102 nM | GI50 (NCI-H23 lung) 105 nM | GI50 (SNB-75 CNS) 53.7 nM | GI50 (NCI/ADR-RES ovarian) 36.4 nM | GI50 (RPMI-8226 leukemia) 286 nM | GI50 (NCI-H522 lung) 29.8 nM | GI50 (HCT-116 colon) 57.1 nM | GI50 (RXF 393 renal) 36.3 nM | GI50 (MDA-MB-435) 26.3 nM | GI50 (786-0 renal) 143 nM | GI50 (A549 NSCLC) 242 nM | GI50 (SF-295 CNS) 70.1 nM | GI50 (SR leukemia) 38.9 nM | GI50 (OVCAR-8 ovarian) 350 nM | GI50 (DU-145 prostate) 180 nM | GI50 (HCT-15 colon) 73.6 nM | GI50 (LOX IMVI melanoma) 115 nM
4650 nM: TGI (HT29 colon)
12600 nM: TGI (SK-MEL-5 melanoma)
268 nM: TGI (RXF 393 renal)
> 70900 nM: TGI (HOP-62 NSCLC)
1490 nM: TGI (U251 CNS)
674 nM: TGI (SNB-75 CNS)
> 79300 nM: TGI (IGROV1 ovarian)
> 25400 nM: TGI (SF-295 CNS)
9810 nM: TGI (SK-OV-3 ovarian)
11100 nM: TGI (SF-539 CNS)
106 nM: TGI (MDA-MB-435)
> 29000 nM: TGI (DU-145 prostate)

Reference: PubChem BioAssay (NCI)
